Publication PMC4084896 (PLoS ONE, 2014)
Like-named read-outs stand apart in the source and are kept apart here.

Legend:
[1] = target: T1, AhR (Mus musculus, UniProt P30561); test: EMSA with nuclear extracts from Hepa-1c1c7 cells (AhR-ARNT-DRE complex); type: cell-based; conditions: Hepa-1c1c7 nuclear extracts, 50 µM, 2 h
T1 construct: endogenous in cells; host or cells: mouse hepatoma Hepa-1c1c7 cells (living cells treated 2 h, then nuclear extracts made)
Method: Electrophoretic mobility shift assay was performed in guinea pig cytosol and nuclear extract from mouse hepatoma cells. Hepa-1c1c7 cells were incubated for 2 h with tested compounds. Nuclear extracts procedure and EMSA analysis was performed as previously described (Soshilov & Denison; 2014). Guinea pig hepatic cytosol (8 mg/mL in HEDG) was incubated for 2 h in a room temperature water bath with tested compounds. An aliquot of the reaction was mixed with poly[dI•dC] and [^32P]-DRE (100.000 cpm), and AHR:DRE:[^32P]DRE complexes were resolved by gel retardation analysis, visualized by autoradiography and quantified by phosphorimager analysis (FujiFilm) of the dried gels.
We carried out the electrophoretic mobility shift assay (EMSA) to reveal whether effects of KET on AhR-CYP1A pathway involve transformation of AhR to DNA binding form, and whether these effects are enantiospecific. For this purpose, EMSA was performed in two experimental systems: (i) Hepatic guinea pig cytosol was treated for 2 hours with DMSO, 20 nM TCDD, (+)-KET, (−)-KET and commercial rac-KET (from Sigma) at 10 µM, 30 µM and 50 µM. All forms of KET transformed AhR to DNA binding form, but the activation was very weak and not statistically above background. There was a slightly stronger effect of (+)-KET and rac-KET as compared to (−)-KET, but the difference was not significant (Figure 4A). (ii) Since we obtained only weak signals in guinea pig liver cytosols, we also analyzed nuclear extracts from mouse hepatoma Hepa-1c1c7 cells treated for 2 hours with DMSO, TCDD (10 nM), (+)-KET (50 µM), (−)-KET (50 µM), commercial rac-KET (Sigma; 50 µM) or an equimolar mix of (+)/(−) enantiomers (50 µM total). […] The effects of (−)-KET were slightly stronger as compared to (+)-KET. […] In addition, we observed formation of the second band with lower molecular weight than AhR-ARNT-DRE, by purified KET enantiomers but not by TCDD and commercial KET.

[2] = target: T2, aryl hydrocarbon receptor AhR (Homo sapiens, UniProt P35869); test: AhR gene reporter assay in AZ-AHR cells, agonist mode; type: cell-based; conditions: for EC50: 24 h, agonist mode
T2 construct: endogenous in cells; host or cells: AZ-AHR (stably transfected reporter line derived from HepG2)
T2 sequence (P35869 11-848): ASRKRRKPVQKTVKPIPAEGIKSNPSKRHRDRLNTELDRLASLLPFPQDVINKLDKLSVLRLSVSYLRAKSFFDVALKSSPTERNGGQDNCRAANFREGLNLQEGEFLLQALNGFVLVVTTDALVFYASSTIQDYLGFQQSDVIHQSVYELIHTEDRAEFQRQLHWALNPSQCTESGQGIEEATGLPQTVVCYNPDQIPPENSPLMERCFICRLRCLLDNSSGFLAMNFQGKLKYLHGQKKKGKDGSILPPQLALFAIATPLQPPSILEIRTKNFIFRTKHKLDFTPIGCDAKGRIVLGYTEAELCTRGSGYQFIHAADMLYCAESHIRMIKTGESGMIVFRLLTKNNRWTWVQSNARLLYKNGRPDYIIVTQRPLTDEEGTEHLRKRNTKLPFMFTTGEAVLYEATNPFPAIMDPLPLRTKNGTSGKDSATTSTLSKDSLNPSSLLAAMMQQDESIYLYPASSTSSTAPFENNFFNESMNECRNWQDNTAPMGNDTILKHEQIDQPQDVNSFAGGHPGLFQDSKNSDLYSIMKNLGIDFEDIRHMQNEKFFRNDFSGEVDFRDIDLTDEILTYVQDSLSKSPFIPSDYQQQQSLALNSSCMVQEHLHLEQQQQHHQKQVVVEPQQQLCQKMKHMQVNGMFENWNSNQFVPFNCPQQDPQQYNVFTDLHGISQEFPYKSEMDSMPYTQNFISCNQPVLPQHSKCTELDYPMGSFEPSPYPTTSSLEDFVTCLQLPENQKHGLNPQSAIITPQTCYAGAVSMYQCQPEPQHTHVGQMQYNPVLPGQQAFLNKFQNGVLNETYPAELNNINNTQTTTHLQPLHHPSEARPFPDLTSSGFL
From the text: (§1) A stably transfected gene reporter cell line AZ-AHR, derived from human hepatoma HepG2 cells transfected with a construct containing several AhR binding sites upstream of a luciferase reporter gene, was used for assessment of AhR transcriptional activity. A stably transfected gene reporter cell line AZ-GR, derived from human cervix carcinoma HeLa cells transfected with a construct containing several GR response elements upstream of a luciferase reporter gene, was used for assessment of GR transcriptional activity. Cells were incubated for 24 h with tested compounds and/or vehicle (DMSO; 0.1% v/v), in the presence or absence of TCDD (5 nM; AZ-AHR cells) or DEX (100 nM; AZ-GR cells). After the treatments, cells were lysed and luciferase activity was measured. In parallel, cell viability was determined by conventional MTT test.
Gene reporter assays were performed in two different experimental layouts. In agonist mode, cells were treated with increasing concentrations of tested compounds, and the half-maximal effective concentrations (EC50) were calculated.

[3] = test system: AZ-GR cells; test: MTT cytotoxicity test in AZ-GR cells; type: cell-based, human; conditions: 24 h incubation, read-out: AZ-GR viability - MTT IC50
From the text: as §1
There is multiple evidence for the role of glucocorticoid receptor (GR) in regulation of AhR activity. […] Gene reporter assays were performed in agonist and antagonist mode (similarly as described in section 3.1.).

T1 sequence (P30561 10-805 limits assumed): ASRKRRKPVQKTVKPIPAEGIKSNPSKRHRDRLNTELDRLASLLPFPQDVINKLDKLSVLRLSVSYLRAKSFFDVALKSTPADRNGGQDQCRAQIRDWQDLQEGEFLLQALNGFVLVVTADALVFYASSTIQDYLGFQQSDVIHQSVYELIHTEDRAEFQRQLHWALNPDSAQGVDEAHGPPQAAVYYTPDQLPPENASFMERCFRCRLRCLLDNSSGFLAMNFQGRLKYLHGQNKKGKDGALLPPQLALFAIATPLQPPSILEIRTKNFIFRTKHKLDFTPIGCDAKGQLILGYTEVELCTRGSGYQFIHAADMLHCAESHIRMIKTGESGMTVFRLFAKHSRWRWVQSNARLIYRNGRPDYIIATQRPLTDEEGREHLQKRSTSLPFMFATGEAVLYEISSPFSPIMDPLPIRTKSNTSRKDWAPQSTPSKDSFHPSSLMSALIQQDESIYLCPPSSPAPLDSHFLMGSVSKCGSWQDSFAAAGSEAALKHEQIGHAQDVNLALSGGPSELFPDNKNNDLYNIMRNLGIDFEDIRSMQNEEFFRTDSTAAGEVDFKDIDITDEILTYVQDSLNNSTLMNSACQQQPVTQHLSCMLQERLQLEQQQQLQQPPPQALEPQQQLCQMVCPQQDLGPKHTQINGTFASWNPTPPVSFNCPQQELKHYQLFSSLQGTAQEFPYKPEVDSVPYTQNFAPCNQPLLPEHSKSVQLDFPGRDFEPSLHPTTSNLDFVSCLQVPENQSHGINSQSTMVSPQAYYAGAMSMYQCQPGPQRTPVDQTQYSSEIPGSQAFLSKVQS
T1 sequence (P53762 whole entry partner): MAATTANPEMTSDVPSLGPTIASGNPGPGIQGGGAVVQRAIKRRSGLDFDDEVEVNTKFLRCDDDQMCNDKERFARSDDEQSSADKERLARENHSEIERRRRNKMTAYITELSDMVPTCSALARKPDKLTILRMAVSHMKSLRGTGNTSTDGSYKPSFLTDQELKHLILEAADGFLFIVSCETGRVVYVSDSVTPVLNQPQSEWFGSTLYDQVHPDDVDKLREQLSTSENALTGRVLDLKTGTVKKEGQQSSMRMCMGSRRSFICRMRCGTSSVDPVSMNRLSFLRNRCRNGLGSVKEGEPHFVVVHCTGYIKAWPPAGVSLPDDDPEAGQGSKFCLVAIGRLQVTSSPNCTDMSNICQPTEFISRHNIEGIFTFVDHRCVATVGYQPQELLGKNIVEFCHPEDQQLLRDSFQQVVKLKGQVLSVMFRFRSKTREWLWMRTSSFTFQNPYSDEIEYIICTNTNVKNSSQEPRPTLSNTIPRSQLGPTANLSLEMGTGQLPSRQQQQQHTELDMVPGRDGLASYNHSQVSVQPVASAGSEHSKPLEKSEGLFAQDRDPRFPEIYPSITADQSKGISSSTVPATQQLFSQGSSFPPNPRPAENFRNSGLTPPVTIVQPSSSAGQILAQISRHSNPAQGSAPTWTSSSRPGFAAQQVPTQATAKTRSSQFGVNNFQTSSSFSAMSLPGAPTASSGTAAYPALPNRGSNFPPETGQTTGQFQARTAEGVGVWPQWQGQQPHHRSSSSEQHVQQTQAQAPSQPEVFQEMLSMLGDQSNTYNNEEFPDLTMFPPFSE

SMILES	transformation of AhR to DNA binding form (in words) [1]	EC50 [2] [µM]	AZ-AHR gene reporter - agonist efficacy ([2]; average value printed in Figure 1B, relative to TCDD)	IC50 [3] [µM]	formation of AhR-ARNT-DRE complex, % of TCDD effects ([1]; TCDD 10 nM)	AZ-AHR gene reporter - agonist efficacy [2]	IC50 ([3]; Homo sapiens) [µM]
CC(=O)N1CCN(c2ccc(OC[C@H]3CO[C@](Cn4ccnc4)(c4ccc(Cl)cc4Cl)O3)cc2)CC1 [(+)-KET, (2R,4S)-(+)-KET]	only weakly transformed	3.2	23,5 ± 12,2%	82.6 ± 23.7			
CC(=O)N1CCN(c2ccc(OCC3COC(Cn4ccnc4)(c4ccc(Cl)cc4Cl)O3)cc2)CC1 (racemic) [rac-KET, ketoconazole]		5.2			approx. 60%	15,4 ± 9,4%	> 100
